pIC50: −log10 of the molar value. Where “and” joins values, the source holds several entries; their conditions need not be identical. Equal entries are not always repeated.
Assays:
[1] = biological target: cluster 2b type streptokinase (Streptococcus pyogenes, UniProt P10520); parameters: species or system group A streptococcal strain A314; conditions: cell-based; for pIC50: cluster 2b; for fold lower IC50 compared to TXA and EACA: streptokinase cluster type 2b
Method: Then inhibitory compounds (LA, PA, oleic, myristic, stearic, palmitic, arachidonic, arachidic, linolenic acid, TXA or EACA) were added. Stocks of LA and PA were prepared in methanol and then diluted in PBS. Stocks of arachidic, oleic, arachidonic, myristic, palmitic, stearic and linolenic acid were prepared in 60% DMSO/PBS and then diluted in PBS. The untreated control received the same amount of PBS as in case of TXA and EACA as control or the same amount of methanol diluted in PBS as in case of LA and PA, respectively, or the same amount of DMSO diluted in PBS as in case of the other commercially available fatty acids. […] The assay was incubated at 37 °C and measured at the beginning of the reaction and then every hour at 405 nm after 3 sec of shaking on a Tecan Sunrise ELISAReader using Magellan software. Each experiment was repeated three times. IC50 values were calculated using Microsoft® Excel software.

[2] = biological target: cluster 2a type streptokinase (Streptococcus pyogenes, UniProt A0A288R465); parameters: species or system group A streptococcal strain A614; conditions: cell-based; for fold lower IC50 compared to TXA and EACA: streptokinase cluster type 2a
Method: The pellet from a mid-log phase culture of the strain A614 (cluster 2a type) or A314 (cluster 2b type) was washed twice with PBS and bacteria were adjusted to an OD600 of 1.0 in HEPES-buffer (10 mM HEPES, 150 mM NaCl, 0.01% Tween 20, pH 7.4). 90 µl of bacterial cells, plasminogen (final concentration 6.7 µg/ml per well) and fibrinogen (final concentration 1 µM per well) were pre-mixed. Then inhibitory compounds (LA, PA, oleic, myristic, stearic, palmitic, arachidonic, arachidic, linolenic acid, TXA or EACA) were added. Stocks of LA and PA were prepared in methanol and then diluted in PBS. Stocks of arachidic, oleic, arachidonic, myristic, palmitic, stearic and linolenic acid were prepared in 60% DMSO/PBS and then diluted in PBS. The untreated control received the same amount of PBS as in case of TXA and EACA as control or the same amount of methanol diluted in PBS as in case of LA and PA, respectively, or the same amount of DMSO diluted in PBS as in case of the other commercially available fatty acids. Then 50 µl of the respective supernatant (supernatant from the strain A614 if cells from A614 were used, supernatant from the strain A314 were used in case of cells from the GAS strain A314) and 3.75 µl 10 mM S-2251 (Chromogenix) were added. The assay was incubated at 37 °C and measured at the beginning of the reaction and then every hour at 405 nm after 3 sec of shaking on a Tecan Sunrise ELISAReader using Magellan software. Each experiment was repeated three times. IC50 values were calculated using Microsoft® Excel software.

[3] = test system: recombinant cluster 2a type streptokinase; assay: Plasminogen assay using recombinant streptokinase; assay type: biochemical, group A streptococcal strain A614; conditions: 40 µg/ml
Method: An overnight culture of the strain A614 (in THY medium) was centrifuged at 5000 rpm for 10 min. The supernatant was discarded and the pellet was resuspended in TE-buffer (from DNeasy blood and tissue kit, Qiagen) containing 10% DNase-free RNase (10 µg/ml). The suspension was transferred to a vial filled with zirconium beads. Bacterial cells were lysed using a fastprep machine (MP Biomedical) twice for 30 sec at 4.0 m/sec. Then AL-buffer (from DNeasy blood and tissue kit, Qiagen) was added and beads were spun down for 30 sec. The lysate was transferred to a new reaction tube and proteinase K was added. The tube was inverted and incubated for 30 min at 56 °C. Then 100% ethanol was added and genomic DNA was isolated according to the protocol of the DNeasy blood and tissue kit (Qiagen). […] Using a gel electrophoresis, the 1500 bp product was detected, cut out and purified using a PCR clean-up, gel extraction kit (Machery-Nagel). […]
75 µl of the recombinant streptokinase (concentration 1 mg/ml) was added to the wells of a 96well plate followed by 69 µl PBS, 5 µl S-2251 (10 mM stock solution, chromogenic substrate for the detection of plasmin, Chromogenix) and 1 µl plasminogen (1 mg/ml stock solution, Biopur or Sigma). […] The absorption was measured at the beginning of the reaction and then every hour at 405 nm after 3 sec of shaking on a Tecan Sunrise ELISA Reader using Magellan software. […]

SMILES: CCCCC/C=C\C/C=C\CCCCCCCC(=O)O [LA, linoleic acid]
- pIC50 [1]: 4.19 and 4.21
- fold lower IC50 compared to TXA and EACA [1]: 1000 fold
- fold lower IC50 compared to TXA and EACA [2]: 250 fold
- inhibition of plasminogen activation [3]: 60–70%

SMILES: CCCCCC/C=C\CCCCCCCC(=O)O [PA, palmitoleic acid]
- pIC50 [1]: 4.21 and 4.20
- fold lower IC50 compared to TXA and EACA [1]: 1000 fold
- pIC50 ([2]; cluster 2a): 3.44 and 3.33
- fold lower IC50 compared to TXA and EACA [2]: 250 fold
- inhibition of plasminogen activation [3]: 60–70%

From paper PMC5603603, “Linoleic and palmitoleic acid block streptokinase-mediated plasminogen activation and reduce severity of invasive group A streptococcal infection” (Scientific Reports, 2017)
